For this assay, the system named is immature T-cell development (de novo antigens on T lymphocytes). The assay can be described thus: T cell development in nude athymic mice (thymopentin vs 4-thiothymopentin). The assay is classed as in vivo. The following applies: 20 micrograms per subject. The text has this:
The incorporation of thioamide linkages at positions on the peptide backbone which are susceptible to degradation may be performed in order to increase the peptide's resistance to enzymatic digestion. This enhanced stability may afford greater biological activities to the peptides prolonged existence. For example, thymopentin, which is merely a biologically active fragment of the polypeptide thymopoietin, may be modified to elicit this response. […] A control group of nude athymic mice was administered 20 micrograms of thymopentin per subject according to well-known assay techniques. See, e.g., O. Archer, T. Pierce, B. Papermanter, and R. Good, "Reduced Antibody Response in Thymectomized Rabbits", Nature, 195, 191 (1962); D. Oscaba and J. Miller, "Evidence for a Humeral Thymus Factor Responsible for the Maturation of Immunological Faculty", Nature, 199, 653 (1963); P. Magrit, "T-Cell Development in Normal and Thymopentintreated Nude Mice", J. Exp. Med., 156, 1057 (1982). […]
The immunomodulatory action of thymopentin and 4-thiothymopentin on immature T-cell development by the expression of de novo antigens on T lymphocytes after daily subcutaneous injections for two weeks in four week old nude athymic mice was measured. […]

No end group written: not given here.

From US5138061A, “Thioacylating reagents” (BioChem Pharma Inc., priority 1989, dated 1992) come the findings set out here.

Take RKDVY [thymopentin]: the “mean increase for the maturation of T cells and related immune responses” value is reported as 43%.
